{"source": "patent US11154551B2", "about": "“HDAC1,2 inhibitors and methods of using the same” (UNIVERSITY OF UTAH RESEARCH FOUNDATION, priority 2014, dated 2021)", "format_in_all_cases": "cell-based, human", "key": {"[1]": {"test_system": "SupB15 (Ph+PreB-ALL) cells", "assay": "γH2AX immunofluorescence", "conditions": "2 μM, 48 hours", "description": "SupB15 cells were treated with 2 μM ACY1035, ACY1071, ACY957, or solvent (DMSO) for 48 hours. (A) Immunofluorescence with γH2AX was performed on treated SupB15 cells. The number of γH2AX foci was counted in around 100 cells for each treatment and classified into cells with no foci, 1-5, 6-10, and greater than 10 foci. (B) SupB15 cells treated with DMSO or ACY1035 for 48 hours were tested via neutral comet assay to measure the amount of double-strand breaks (DSBs), indicated by the tail.\nBCR-ABL promotes DNA repair to prevent DNA damage accumulation in Philadelphia chromosome-positive (Ph+) leukemia cells. To examine the effect of various HDAC1,2-selective inhibitors on DNA repair and DNA damage response in Pre-B-ALL cells that express BCR-ABL, SupB15 (Ph+PreB-ALL) cells were treated with 2 μM ACY1035 or 2 μM ACY1071 or 2 μM ACY957 for 48 hours."}, "[2]": {"test_system": "Karpas-422, SUDHL4, WSU-DLCL2 and HeLa cells", "assay": "laser micro-irradiation repair assay, H3K27me3 at break sites", "conditions": "15 min recovery, vs DMSO", "description": "Following DMSO or ACY-957 treatment, cells were exposed to a 5Gy dose of ionizing radiation and allowed to recover for 30 minutes prior to chromatin extraction. Western blots were performed with anti-H3K27ac or anti-H3K27me3 with histone H3 serving as a loading control. (B-E): Karpas-422, SUDHL4, WSU-DLCL2 and HeLa cells were laser micro-irradiated and allowed to recover for 15 minutes before fixation and immunofluorescence staining with anti-γH2AX and anti-H3K27me3. Subsequently, the percentage of cells with H3K27me3 lines that co-localized with γH2AX were counted. Merge is the overlay of γH2AX and H3K27me3 pictures. (F-I): At least 100 cells with γH2AX lines were counted in each experiment. The quantitation shown was the average calculated from independent experiments+/−standard error. Quantitation from five, seven, five and six independent experiments performed in Karpas-422, SUDHL4, WSU-DLCL2 and HeLa cells, respectively, was used in the graph shown in this figure. […]\n(A) Measurement of repair efficiency in SUDHL5 (EZH2^WT) and Karpas-422 (EZH2^GOF) cells using neutral comet assay that detects only double-strand breaks (DSBs). […] H3K27me3, γH2AX, Bmi-1, and serine2-phosphorylated RNA Polymerase II (engaged in transcriptional elongation) were monitored at laser break sites (arrows) after 15 minutes of recovery time. […]"}, "[3]": {"test_system": "SUDHL4 and Karpas-422 cells", "assay": "Western blot of γH2AX on chromatin, with or without ionizing radiation", "description": "The percentage of cells with 6 or greater γH2AX foci were counted in three independent experiments and at least 100 cells were counted in each experiment. […] Histones were purified using trichloroacetic acid extraction protocol (see Example 1). Western blot analysis was done with anti-γH2AX and histone H2AX served as the loading control. […] Following DMSO or ACY957 treatment, cells were exposed to a 5Gy dose of ionizing radiation and allowed to recover for 30 minutes prior to chromatin extraction. Western blot analysis was done with anti-γH2AX where total histone H2AX served as a loading control. (D): Karpas-422 cells were micro-irradiated with laser and allowed to recover for 15 minutes before fixation and immunofluorescence staining with anti-γH2AX, anti-HDAC1 and anti-HDAC2 antibodies was done."}}, "data": [{"smiles": "Nc1ccc(-c2cccs2)cc1NC(=O)c1ccc2nc(N3CCNCC3)ccc2c1", "note": "[ACY-957, N-(2-amino-5-(thiophen-2-yl)phenyl)-2-(piperazin-1-yl)quinoline-6-carboxamide]", "values": [{"measurement": "DNA damage, quantitation of γH2AX foci", "setting": "[1]", "value": "statistically significant increase in DNA damage"}, {"measurement": "H3K27me3 at laser-induced break sites", "setting": "[2]", "value": "reduced the extent of H3K27me3 present at laser-induced break sites"}, {"measurement": "H3K27me3 at laser-induced break sites", "setting": "[2]; listed as ACY957", "value": "abolished"}, {"measurement": "chromatin associated γH2AX", "setting": "[3]; 48 hr, Western", "value": "increase in chromatin associated γH2AX"}, {"measurement": "γH2AX levels on chromatin after ionizing radiation", "setting": "[3]; 48 h treatment, 5Gy, 30 min recovery", "value": "Increased γH2AX levels on chromatin"}]}]}
